Measurements as given in US10231958B2, “Methods and compositions for enhancing chemotherapy” (THE BOARD OF REGENTS OF THE UNIVERSITY OF TEXAS SYSTEM, priority 2015, dated 2019).
Starred links: 1 amine or outer side, 2 acyl side, 3 side chain; linkers in the order of their positions; H or OH if unused. Positions of bridges follow the written chain, without caps; N, C: chain ends. Non-standard residues stand in square brackets, D forms with d. Residues, ends and D or L forms follow the SMILES beside them. Chains are numbered I, II in the order given. Actinocin(9to1) = Cc1c2oc3c(C)ccc(C(=O)[*:1])c3nc-2c(C(=O)[*:2])c(N)c1=O; NMeV = CN[C@H](C(=O)O)C(C)C; Sar = CNCC(=O)O

Experiments:
[1] = system: Intracellular ROS production; assay: Real-time ROS production (DCF assay); format: cell-based; settings: for ROS production, agent alone: BSO 2.5 mM, CDDP 75 μM, TMZ 1.5 mM, 4HC 75 μM, 12 h
Protocol: Intracellular ROS production was detected using DCFH-DA probe (Sigma) (Zanotto-Filho et al., 2010, Cancer Lett 288, 192-203). This reagent enters the cells and reacts predominantly with highly oxidizing species of ROS, such as hydroxyl radicals, hydroperoxides, and peroxynitrite, thus producing the fluorophore DCF. Briefly, cells were seeded in black-edge clear bottom 96-well plates. After reaching 70% confluence, medium was changed and cells were incubated with 20 μM DCFH-DA dissolved in medium containing 0.5% FBS. After 1 h pre-incubation to allow DCFH-DA uptake, treatments were added to its respective final concentrations and DCF fluorescence was monitored at 0.5, 1, 3, 8, 12, 16 and 24 h in a fluorescence reader (Ex/Em=485/532 nm). Hydrogen peroxide was used as a positive control and N-acetylcysteine (NAC), GSH-ethyl-ester (GSH-E) and Trolox were used as antioxidant standards. As a control, at the end of 24 h, cell viability was assessed and compared to wells in the absence of DCFH-DA.

IL8, MMP1, MMP3 and PGE2 = assay: ELISA of inflammatory mediators in culture medium; format: cell-based, human; settings: for production of IL-8, MMP-1 and MMP-3: MDA-MB231 culture medium; for prostaglandin E2 (PGE2) in culture medium and COX-2 protein in lysates: human cancer cells, 12 h
Protocol: (§1) Quantification of MMP1 and MMP3 content in culture medium was assessed using RayBio-MMP3 and RayBio-MMP1 Elisa Kit (RayBiotech, Inc); IL8 was analyzed by Human IL-8 Elisa kit (Pierce Biotechnology). The levels of prostaglandin E2 (PGE2) were determined using the Prostaglandin E2 EIA Kit Monoclonal (Cayman Chemical Company). Culture media were diluted to fit within the standard curves. For conditioned media (CM) preparation for invasion and in vitro angiogenesis experiments, 12-well plated cells were treated with MMS (or MMS plus inhibitors) for 8 h in the presence of 10% FBS, twice washed with HBSS, and incubated with 700 μL drug/serum-free fresh medium for additional 12 h. Thereafter, the conditioned fresh medium was collected and directly used for migration and invasion experiments in order to reduce freezing associated loss of activity.

[2] = system: NRF2, GCLC, ER stress markers; assay: Western blot of NRF2, GCLC and ER stress markers; format: cell-based; settings: for NRF2 and GCLC protein levels: MEFs, MDA-MB231, MCF-7, 8-12 h; for immunocontent of ER stress markers: cancer cells, 24 h; for effect on MMS-induced NRF2 activation: CHX 1 μg/mL, Actinomycin D 5 μg/mL, NAC 7.5 mM
Protocol: Western blot. Protein lysates were prepared using RIPA buffer containing 5% sodium deoxycholate, 0.1% SDS, 0.1% Igepal in PBS with a cocktail of protease and phosphatase inhibitors (1 mM PMSF, 1 mM sodium orthovanadate, 1 mM NaF, and 30 μL/mL aprotinin (Sigma-Aldrich, USA)) and clarified by centrifugation. Protein concentration was determined using Bradford Protein Assay Reagent (Biorad, Hercules, Calif.). Equal amounts of protein were resolved using 8-12% SDS polyacrylamide gel, transferred onto nitrocellulose membranes (Hybond-ECL, GE Healthcare Lifesciences, Piscataway, N.J.) and detected using Lumiglo system (Cell Signaling Technology, Calif.) and x-ray films. Primary antibodies included COX-2 (#4842), NRF2 (D1C9), p-JNK1/2 (Thr183/Tyr185, #4671), p-p38 (Thr180/Tyr182, #9216), p-ERK1/2 (Thr202/Tyr204, #9101), BiP/GRP78 (C50B12), IRE1a (14C10), CHOP (L63F7) and PERK (D11A8) from Cell Signaling Technology; p-IRE1a (Ser724; NB100-2323) from Novus Biologicals; GCLC (Ab41463), beta-actin (ab8227) and ATF6 (Ab37149) from Abcam; p-PERK (Thr 981, sc-32577) and ATF3 (C19) were purchased from Santa Cruz. All primary antibodies were used at 1:1000 dilutions and secondary antibodies were 1:3000 in TBS-T with 5% BSA.

[3] = system: AP1-responsive firefly luciferase construct in MDA-MB231 cells; assay: AP-1 gene reporter assay; format: cell-based, human; settings: MDA-MB231, pre-incubation with inhibitor
Protocol: (§2) Prior to transfection, cells were plated in 96-well plates to 80-90% confluence (100 μL antibiotic free-medium) after 24 h. When used, siRNA were incubated by reverse transfection during cells seeding. […] A mixture of non-inducible firefly luciferase construct and constitutively expressing Renilla luciferase construct (40:1) were used as negative controls. Approximately 24 h post-transfection, the medium was changed and the cells were treated for 12 h with alkylating agents (with/out 6 h pre-treatments). At the end of this period, medium was changed to drug-free fresh medium (to minimize the effect of alkylating toxicity on promoters activity) and cells were kept for an additional 12 h.

human endothelial cells = assay: In vitro angiogenesis (Angiophase kit, CD31); format: cell-based; settings: direct incubation
Protocol: as §1
The Angiophase kit (MBL Inc.) was used to assess the angiogenic potential of conditioned media (CM) from breast cancer cells or the direct effect of pharmaceutical inhibitors (free-drug system) on vessel-like structures formation in vitro. With this kit, human endothelial cells are co-cultured in a specially designed medium to form threadlike tubule structures. These gradually join up to form a network of anastomosing tubules, which resemble the capillary bed found in the CAM assay. Kit-provided cryopreserved co-culture of human endothelial cells were plated and kept for 96 h (proliferative phase) without treatments. Afterwards, the cells were maintained in the presence of conditioned medium from alkylating agent treated cells or control medium for a total of 14 days (angiogenic/vasculogenic phase). Medium was changed each 2 days. At the end of treatments, the cells were fixed and immune-stained for CD31 (PECAM-1), following by incubation with secondary antibody conjugate. ELISA was developed using the soluble substrate p-nitrophenyl-phosphate (p-NPP) whose product was colorimetrically read at 405 nm. After ELISA assays, the wells were washed with dH2O and tubule staining was performed by incubating CD31-stained tubules with the substrate BCIP/NBT, which form insoluble precipitates. Tubules were counted and photographed for qualitative monitoring.

[4] = system: MDA-MB231 xenograft implants; assay: MDA-MB231 xenograft study; format: in vivo, mouse
From the text: The study was approved by the University of Texas Health Science Center at San Antonio Institutional Animal Care and Use Committee (IACUC) policy as outlined in protocol number 11024. The facility is operated in compliance with the Public Law 89-544 (Animal Welfare Act) and its amendments, Public Health Services Policy on Humane Care and Use of Laboratory Animals (PHS Policy) using the Guide for the Care and Use of Laboratory Animals (Guide) as the basis of operation. Selection of cyclophosphamide and sorafenib doses was based on previously published reports (Sun et al., 2010, J Int Med Res 38, 967-76; Wilhelm et al., 2004 Cancer Res 64, 7099-109). MDA-MB-231 cells were harvested by trypsinization, washed and re-suspended in serum-free medium. Thereafter, cells were mixed with matrigel (1:1), and approximately 5×10^6 cells were subcutaneously injected in the right flank of each mouse. When the average tumor volume reached about 100 mm^3, mice were randomized into groups of 8 animals each, and the following treatment protocol was implemented: Group 1 (control): 100 μL of saline (i.p.); Group 2: sorafenib (1 mg/kg; i.p.) for 9 days; Group 3: cyclophosphamide 0.1 g/kg on days 2, 4, 6 and 8; Group 4: Sorafenib+cyclophosphamide (combination of same above described regimens). All animals were sacrificed 5 days after the end of treatments (15th day of the treatment protocol). Body weight of mice was recorded weekly, and tumor size was measured thrice a week in two dimensions using a digital caliper. The tumor volume was calculated by the formula 0.5236 L1(L2)^2, where L1 is the long axis, and L2 is the short axis of the tumor. At the termination of the study, mice were euthanized; tumors were excised and a part was fixed in 10% phosphate-buffered formalin for H&E, Masson's staining and immunohistochemistry (IHC) analyses.

[5] = system: NFκB-responsive firefly luciferase construct in MDA-MB231 cells; assay: NFκB gene reporter assay; format: cell-based, human; settings: MDA-MB231, pre-incubation with inhibitor
Protocol: as §2

[6] = system: Kc167 cells, MEFs, and MDA-MB231 breast cancer cells; assay: Cell viability (CellTiter-Glo); format: cell-based, D. melanogaster, mouse, human; settings: pre-incubation, then MMS; all cell types tested; 48 h
Protocol: The D. melanogaster embryonic cell line Kc167 was grown in Schneider medium (Invitrogen, Carlsbad, Calif.) supplemented with 10% heat-inactivated (56° C./30 min) fetal bovine serum (FBS), penicillin and streptomycin at 22° C. in a humidified incubator. Primary MEFs were obtained by harvesting 14.5-day C57BL/6J embryos as previously described (Ravi et al., 2009, PLoS Genet 5, e1000527). Briefly, fetal liver and head were removed and the remainder of the embryo was mechanically disaggregated in plating medium. A suspension of single-cells was plated in DMEM (plus 10% FBS, 100 U/mL penicillin and 100 μg/mL streptomycin). MEFs were grown for two passages before freezing aliquots. Aliquots were taken and expanded as needed for each experiment. MDA-MB231, SkBr3 and MCF-7 breast cancer cells lines were obtained from ATCC and grown in DMEM supplemented with 10% inactivated FBS plus antibiotics in a 37° C. humidified incubator at […] atmosphere. Cells were kept and treated in the exponential phase of growing (60-70% confluence). […] DMSO concentrations were kept to a maximum of 0.1% for all experiments. Cell viability was assessed using CellTiter-Glo Luminescent Viability assay (Promega) in 384 or 96-well plates white-border clear-bottom plated cells. For caspase-3/7 activity, Caspase-Glo 3/7 Assay kits were used (Promega). For caspase assays, the cells were seeded in 96-well plates and assayed directly after treatments. Caspase-3/7 inhibitor (Z-DEVD-fmk) was used to ensure assay specificity. LDH release into culture medium was quantified by Cytotox-96 Non-Radioactive assay kit in agreement with instructions (Promega).

`O=P1(N(CCCl)CCCl)NC(OO)CCO1` (centres unmarked) [4-HC, 4-hydroperoxycyclophosphamide] was tested, and the “ROS production, agent alone” value [1] was “increased ROS”, the “production of IL-8, MMP-1 and MMP-3” value (IL8, MMP1, MMP3 and PGE2) was “increased the production of these molecules” and the “prostaglandin E2 (PGE2) in culture medium and COX-2 protein in lysates” value (IL8, MMP1, MMP3 and PGE2) was “increased levels of prostaglandin E2 (PGE2)”. For the same molecule, the “NRF2 and GCLC protein levels” value [2] was “induced NRF2 and GCLC protein” and the “immunocontent of ER stress markers” value [2] was “increased the immunocontent of ER stress markers”.
In the case of `O=C1c2ccccc2-c2n[nH]c3cccc1c23` [SP600129], the “effect on MMS-induced activation of AP-1 reporter” value [3] is reported as “blocked”.
With `CCCCC[C@H](O)/C=C/[C@H]1[C@H](O)CC(=O)[C@@H]1C/C=C\CCCC(=O)O` [PGE2, prostaglandin E2] the “vessel-like structure formation, purified factor” value (human endothelial cells) was “angiogenic”.
In the case of `Cc1c2oc3c(C)ccc(C(=O)N[C@@H]4C(=O)N[C@H](C(C)C)C(=O)N5CCC[C@H]5C(=O)N(C)CC(=O)N(C)[C@@H](C(C)C)C(=O)O[C@@H]4C)c3nc-2c(C(=O)N[C@@H]2C(=O)N[C@H](C(C)C)C(=O)N3CCC[C@H]3C(=O)N(C)CC(=O)N(C)[C@@H](C(C)C)C(=O)O[C@@H]2C)c(N)c1=O` [actinomycin D] (I: T[dV]P[Sar][NMeV] / II: T[dV]P[Sar][NMeV]; ester I:1-I:C, II:1-II:C; linker I:N-II:N via Actinocin(9to1)), the “effect on MMS-induced NRF2 activation” value [2] is reported as “blocked NRF2 activation”.
In the case of `[NH2][Pt]([NH2])([Cl])[Cl]` [CDDP, cisplatin], the “ROS production, agent alone” value [1] is reported as “increased ROS”, the “production of IL-8, MMP-1 and MMP-3” value (IL8, MMP1, MMP3 and PGE2) is reported as “increased the production of these molecules” and the “prostaglandin E2 (PGE2) in culture medium and COX-2 protein in lysates” value (IL8, MMP1, MMP3 and PGE2) is reported as “increased levels of prostaglandin E2 (PGE2)”. For the same molecule, the “NRF2 and GCLC protein levels” value [2] was “induced NRF2 and GCLC protein” and the “immunocontent of ER stress markers” value [2] was “increased the immunocontent of ER stress markers”.
`C[C@@H]1C[C@@H]([C@H](O)CC2CC(=O)NC(=O)C2)C(=O)[C@@H](C)C1` [cycloheximide] was tested, and the “effect on MMS-induced NRF2 activation” value [2] was “blocked NRF2 activation”.
In the case of `O=P1(N(CCCl)CCCl)NCCCO1` (centres unmarked) [cyclophosphamide], the “collagen deposition (wound healing phenotype)” value ([4]; cyclophosphamide alone) is reported as “spreading areas of collagen deposition”, the “tumor microvessels (histology, CD31)” value ([4]; cyclophosphamide alone vs untreated) is reported as “increased number of niches of microvessels” and the “tumor growth, single agent” value ([4]; sorafenib 1 mg/kg i.p. 9 days, cyclophosphamide 0.1 g/kg days 2, 4, 6, 8) is reported as “reduced tumor size”.
With `C[S+]([O-])c1ccc(-c2nc(-c3ccc(F)cc3)c(-c3ccncc3)[nH]2)cc1` (centres unmarked) [SB203508] the “effect on MMS-induced activation of AP-1 reporter” value [3] was “only blocked the NFκB reporter” and the “effect on MMS-induced activation of NFκB reporter” value [5] was “only blocked the NFκB reporter”.
In the case of `Cc1ccc(S(=O)(=O)/C=C/C#N)cc1` [BAY117082], the “effect on MMS-induced activation of NFκB reporter” value [5] is reported as “blocked”.
With VEGF the “vessel-like structure formation, purified factor” value (human endothelial cells) was “angiogenic”.
With `Cc1c(C)c2c(c(C)c1O)CCC(C)(C(=O)O)O2` (centres unmarked) [Trolox] the “effect on MMS toxicity” value [6] was “had no effect” and the “effect on ROS levels” value ([1]; Trolox 200 μM, NAC 7.5 mM, GSH-E 10 mM) was “reduced ROS below levels of the control”.
